This passage reports IC50 results from ChEMBL document CHEMBL6127100, “Plant based steroidal and triterpenoid sapogenins: Chemistry on diosgenin and biological aspects” (Eur J Med Chem, 2024).

Holding throughout (type): functional, cell-based
One test relates to SH-SY5Y. Briefly: Cytotoxicity against human SH-SY5Y cells assessed as reduction in cell viability incubated for 24 hrs by MTT assay.
The test system of test [1] is MDA-MB-231. Put plainly: Cytotoxicity against human MDA-MB-231 cells assessed as reduction in cell growth incubated for 48 hrs by MTT assay. As to conditions: MDA-MB-231, 48 h. (Formazan colour is commonly taken as a measure of viable cells.)
The subject of test [2] is HeLa. Put plainly: Cytotoxicity against human HeLa cells assessed as reduction in cell growth incubated for 48 hrs by MTT assay.
The test system of another test is KB. Briefly: Cytotoxicity against human KB cells assessed as reduction in cell growth incubated for 3 days by micro-titer plate reader analysis. As to conditions: 72 h.
Another test relates to HuCC-A1. Put plainly: Cytotoxicity against human HuCC-A1 cells assessed as reduction in cell growth incubated for 3 days by micro-titer plate reader analysis. Particulars: HuCC-A1, 72 h.
Test [3] deals with HepG2. Briefly: Cytotoxicity against human HepG2 cells assessed as reduction in cell viability incubated for 24 hrs by MTT assay. As to conditions: HepG2, 24 h.
The next test deals with Ca-Ski. Briefly: Antiproliferative activity against human Ca-Ski cells assessed as reduction in cell growth after 48 hrs by MTT assay.
Test [4] has as its system HeLa. Briefly: Antiproliferative activity against human HeLa cells assessed as reduction in cell growth after 48 hrs by MTT assay.
In another test the test system is U-937. Briefly: Cytotoxicity against human U-937 cells.
Test [5] has as its system MDA-MB-231. Briefly: Cytotoxicity against human MDA-MB-231 cells.
The next test concerns CCRF-CEM. Briefly: Cytotoxicity against human CCRF-CEM cells.
For test [6], the system named is HepG2. Briefly: Antiproliferative activity against human HepG2 cells assessed as reduction in cell viability incubated for 24 hrs ny MTT assay. Particulars: HepG2, 24 h.
For test [7], the system named is HeLa. Briefly: Antiproliferative activity against human HeLa cells assessed as reduction in cell viability measured for 24 hrs by MTT assay.
The subject of test [8] is HepG2. Briefly: Antiproliferative activity against human HepG2 cells assessed as reduction in cell viability measured for 24 hrs by MTT assay. As to conditions: HepG2, 24 h.

Broadly, the IC50 is the concentration at which inhibition is half-maximal. Turning to `C[C@@H]1CC[C@@]2(OC1)O[C@H]1C[C@H]3[C@@H]4CC=C5C[C@@H](OC(=O)CN(C)C(=O)OC(C)(C)C)CC[C@]5(C)[C@H]4CC[C@]3(C)[C@H]1[C@@H]2C`, in the test with SH-SY5Y, the IC50 worked out at 15.2 µM.
The same measure, in the same setting: in the case of `C[C@@H]1CC[C@@]2(OC1)O[C@H]1C[C@H]3[C@@H]4CC=C5C[C@@H](OC(=O)[C@@H]6CCCN6)CC[C@]5(C)[C@H]4CC[C@]3(C)[C@H]1[C@@H]2C` it was 7.2 µM.
For `C[C@@H]1CC[C@@]2(OC1)O[C@H]1C[C@H]3[C@@H]4CC=C5C[C@@H](O[C@@H]6O[C@H](CO)[C@@H](O[C@@H]7O[C@H](CO)[C@@H](O[C@@H]8O[C@@H](C)[C@H](O)[C@@H](O)[C@H]8O)[C@H](O)[C@H]7O)[C@H](O)[C@H]6O[C@@H]6O[C@@H](C)[C@H](O)[C@@H](O)[C@H]6O)CC[C@]5(C)[C@H]4CC[C@]3(C)[C@H]1[C@@H]2C`, the concentration for half-maximal inhibition (IC50) stood at 0.9 µM in the test on MDA-MB-231 [1], 0.7 µM with HeLa [2], 0.9 µM with KB and 2.6 µM in the test with HuCC-A1.
For `C[C@@H]1CC[C@@]2(OC1)O[C@H]1C[C@H]3[C@@H]4CC=C5C[C@@H](O[C@@H]6O[C@H](CO)[C@@H](O[C@@H]7O[C@@H](C)[C@H](O[C@@H]8O[C@@H](C)[C@H](O)[C@@H](O)[C@H]8O)[C@@H](O)[C@H]7O)[C@H](O)[C@H]6O[C@@H]6O[C@@H](C)[C@H](O)[C@@H](O)[C@H]6O)CC[C@]5(C)[C@H]4CC[C@]3(C)[C@H]1[C@@H]2C` [PENNOGENIN RAHAMNOSYL CHACOTRIOSIDE], the IC50 came to 3.1 µM in the test with MDA-MB-231 [1]; 3 µM in the test on HeLa [2]; 6.33 µM in the test with HepG2 [3]; 6.2 µM with KB; 3 µM in the test with HuCC-A1.
Turning to `C[C@@H]1CC[C@@]2(OC1)O[C@H]1C[C@H]3[C@@H]4CC=C5C[C@@H](O)CC[C@]5(C)[C@H]4CC[C@]3(C)[C@H]1[C@@H]2C` [DISOGENIN], the half-inhibitory concentration (IC50) in the test on Ca-Ski was 80 µM; in the test with HeLa [4], 31.4 µM.
For the compound `CC(C)C[C@H](NC(=O)OC(C)(C)C)C(=O)O[C@H]1CC[C@@]2(C)C(=CC[C@H]3[C@@H]4C[C@@H]5O[C@]6(CC[C@@H](C)CO6)[C@@H](C)[C@@H]5[C@@]4(C)CC[C@@H]32)C1`, the IC50 with SH-SY5Y was determined as 9.5 µM.
As for `C[C@@H]1CC[C@@]2(OC1)O[C@H]1C[C@H]3[C@@H]4CC(n5cc(-c6ccccn6)nn5)C5(O)C[C@@H](O)CC[C@]5(C)[C@H]4CC[C@]3(C)[C@H]1[C@@H]2C` (stereo partly drawn), in the test with U-937, half-maximal inhibition (IC50) was put at 15.2 µM.
Consider `C[C@@H]1CC[C@@]2(OC1)O[C@H]1C[C@H]3[C@@H]4CC=C5C[C@@H](OC(=O)[C@@H](N)Cc6ccccc6)CC[C@]5(C)[C@H]4CC[C@]3(C)[C@H]1[C@@H]2C`, for which, in the test with SH-SY5Y, the IC50 is 11.2 µM.
On to `C[C@@H]1CC[C@@]2(OC1)O[C@H]1C[C@H]3[C@@H]4CC=C5C[C@@H](O[C@@H]6O[C@H](CO)[C@@H](O)[C@H](O)[C@H]6O)CC[C@]5(C)[C@H]4CC[C@]3(C)[C@H]1[C@@H]2C` [DISOGLUSIDE], for which the half-maximal inhibitory concentration (IC50) in the test with Ca-Ski was 41 µM; in the test with HeLa [4] it was 39.1 µM.
The like results for `C[C@@H]1CC[C@@]2(OC1)O[C@H]1C[C@H]3[C@@H]4CC=C5C[C@@H](O[C@@H]6O[C@H](CO)[C@@H](O[C@@H]7O[C@@H](C)[C@H](O)[C@@H](O)[C@H]7O)[C@H](O)[C@H]6O)CC[C@]5(C)[C@H]4CC[C@]3(C)[C@H]1[C@@H]2C` were, in that order, 80 µM and 45.1 µM.
As to `C[C@@H]1CC[C@@]2(OC1)O[C@H]1C[C@H]3[C@@H]4CC=C5C[C@@H](O[C@@H]6O[C@H](CO)[C@@H](O[C@@H]7O[C@H](CO)[C@@H](O)[C@H](O)[C@H]7O)[C@H](O)[C@H]6O[C@@H]6O[C@@H](C)[C@H](O)[C@@H](O)[C@H]6O)CC[C@]5(C)[C@H]4CC[C@]3(C)[C@H]1[C@@H]2C` [DELTONIN], the IC50 with MDA-MB-231 [1] worked out at 1.1 µM; in the test on HeLa [2], 0.9 µM; in the test on KB, 1.2 µM; in the test with HuCC-A1, 3.4 µM.
Consider `C[C@@H]1CC[C@@]2(OC1)O[C@H]1C[C@H]3[C@@H]4CC=C5C[C@@H](O[C@@H]6O[C@H](CO)[C@@H](O[C@@H]7O[C@@H](CO)[C@H](O)[C@H]7O)[C@H](O)[C@H]6O[C@@H]6O[C@@H](C)[C@H](O)[C@@H](O)[C@H]6O)CC[C@]5(C)[C@H]4CC[C@]3(C)[C@H]1[C@@H]2C`, for which, in the test on HepG2 [3], the IC50 was found to be 12.2 µM.
Turning to `COc1cc(-c2cn(C3C[C@H]4[C@@H]5C[C@@H]6O[C@]7(CC[C@@H](C)CO7)[C@@H](C)[C@@H]6[C@@]5(C)CC[C@@H]4[C@@]4(C)CC[C@H](O)CC34O)nn2)cc(OC)c1OC` (stereo partly drawn), the IC50 stood at 5.45 µM with U-937, 16.1 µM in the test with MDA-MB-231 [5] and 6.26 µM in the test on CCRF-CEM.
Take `C[C@H](CC[C@H]1O[C@H]2C[C@H]3[C@@H]4CC=C5C[C@@H](O[Si](C)(C)C(C)(C)C)CC[C@]5(C)[C@H]4CC[C@]3(C)[C@H]2[C@@H]1C)COC1=C(Cl)C(=O)c2ncccc2C1=O`: the IC50 in the test on HepG2 [6] is 19.7 µM.
For the compound `C[C@@H]1CC[C@@]2(OC1)O[C@H]1C[C@H]3[C@@H]4CC=C5C[C@@H](O[C@@H]6O[C@H](CO)[C@@H](O[C@@H]7O[C@@H](C)[C@H](O)[C@@H](O)[C@H]7O)[C@H](O)[C@H]6O[C@@H]6O[C@@H](C)[C@H](O)[C@@H](O)[C@H]6O)CC[C@]5(C)[C@H]4CC[C@]3(C)[C@H]1[C@@H]2C` [DIOSCIN], the IC50 in the test on MDA-MB-231 [1] amounted to 1.7 µM; in the test with HeLa [2] it was 3.6 µM; with HepG2 [3] it was 3.09 µM; with KB it was 6.2 µM; in the test with HuCC-A1, 8.4 µM; in the test on Ca-Ski, 2 µM. The IC50 with HeLa [4] came out at 2 µM.
For `C[C@@H]1CC[C@@]2(OC1)O[C@H]1C[C@H]3[C@@H]4CC=C5C[C@@H](O[C@@H]6O[C@H](CO)[C@@H](O)[C@H](O)[C@H]6O[C@@H]6O[C@@H](C)[C@H](O)[C@@H](O)[C@H]6O)CC[C@]5(C)[C@H]4CC[C@]3(C)[C@H]1[C@@H]2C` [OPHIOPOGONIN C], the IC50 in the test on MDA-MB-231 [1] turned out to be 3.5 µM; with HeLa [2] it was 3.7 µM; in the test with HepG2 [3] it was 2.92 µM; in the test with KB, 4.2 µM; in the test with HuCC-A1 it was 5.8 µM.
As for `CC[C@H](C)[C@H](NC(=O)OC(C)(C)C)C(=O)O[C@H]1CC[C@@]2(C)C(=CC[C@H]3[C@@H]4C[C@@H]5O[C@]6(CC[C@@H](C)CO6)[C@@H](C)[C@@H]5[C@@]4(C)CC[C@@H]32)C1`, the concentration for half-maximal inhibition (IC50) in the test on SH-SY5Y amounted to 18.5 µM.
As for `C[C@@H]1CC[C@@]2(OC1)O[C@H]1C[C@H]3[C@@H]4CC=C5C[C@@H](O[C@@H]6O[C@H](CO)[C@@H](O[C@@H]7O[C@@H](C)[C@H](O[C@@H]8O[C@@H](C)[C@H](O[C@@H]9O[C@@H](C)[C@H](O[C@@H]%10O[C@@H](C)[C@H](O)[C@@H](O)[C@H]%10O)[C@@H](O)[C@H]9O)[C@@H](O)[C@H]8O)[C@@H](O)[C@H]7O)[C@H](O)[C@H]6O[C@@H]6O[C@@H](C)[C@H](O)[C@@H](O)[C@H]6O)CC[C@]5(C)[C@H]4CC[C@]3(C)[C@H]1[C@@H]2C`, the IC50 in the test on HepG2 [3] is 13.4 µM.
With `CC(=O)O[C@H]1CC[C@@]2(C)C(=CC[C@H]3[C@@H]4C[C@@H]5O[C@H](CC[C@@H](C)COC6=C(Cl)C(=O)c7ccccc7C6=O)[C@@H](C)[C@@H]5[C@@]4(C)CC[C@@H]32)C1`, the concentration for half-maximal inhibition (IC50) in the test on HepG2 [6] was determined as 13.5 µM.
With `C[C@H](CC[C@H]1O[C@H]2C[C@H]3[C@@H]4CC=C5C[C@@H](OC6=C(Cl)C(=O)c7ncccc7C6=O)CC[C@]5(C)[C@H]4CC[C@]3(C)[C@H]2[C@@H]1C)CO[Si](C)(C)C(C)(C)C`, the 50% inhibitory concentration (IC50) with HeLa [7] was determined as 12.4 µM; in the test on HepG2 [8], 12.2 µM.
As for `CCCC(N)C(=O)O[C@H]1CC[C@@]2(C)C(=CC[C@H]3[C@@H]4C[C@@H]5O[C@]6(CC[C@@H](C)CO6)[C@@H](C)[C@@H]5[C@@]4(C)CC[C@@H]32)C1` (stereo partly drawn), the IC50 with SH-SY5Y was 6.9 µM.
With `C[C@H](CC[C@H]1O[C@H]2C[C@H]3[C@@H]4CC=C5C[C@@H](OC6=C(Cl)C(=O)c7ccccc7C6=O)CC[C@]5(C)[C@H]4CC[C@]3(C)[C@H]2[C@@H]1C)CO[Si](C)(C)C(C)(C)C`, the concentration for half-maximal inhibition (IC50) in the test with HeLa [7] amounted to 9.69 µM; in the test with HepG2 [8] it was 3.52 µM.
On the same counts, the results for `Cc1ccc2c(c1)C(=O)C(Cl)=C(OC[C@H](C)CC[C@H]1O[C@H]3C[C@H]4[C@@H]5CC=C6C[C@@H](OC7=C(Cl)C(=O)c8cc(C)ccc8C7=O)CC[C@]6(C)[C@H]5CC[C@]4(C)[C@H]3[C@@H]1C)C2=O` are 14.5 µM and 9.18 µM.
On the same counts, the results for `Cc1ccc2c(n1)C(=O)C(Cl)=C(O[C@H]1CC[C@@]3(C)C(=CC[C@H]4[C@@H]5C[C@@H]6O[C@H](CC[C@@H](C)CO)[C@@H](C)[C@@H]6[C@@]5(C)CC[C@@H]43)C1)C2=O` are 15.6 µM and 5.36 µM.
